Experimental data: US20040097595A1, “Phthalamide derivatives, insecticides for agricultural and horticultural use and method for application thereof” (priority 2001, published 2004)

Legend:
[1] = test system: Common Cutworm (Spodoptera litura); experiment: Test Example 2: insecticidal effect on common cutworm, cabbage leaf immersion; format: in vivo; conditions: cabbage leaf immersed, second-instar larvae, eight days after inoculation, 25° C.
Text: Insecticidal Effect on Common Cutworm (Spodoptera litura)
A piece of cabbage leaf (cultivar; Shikidori) was immersed for about 30 seconds in a liquid chemical prepared by diluting a preparation containing each compound listed in Table 1 or 2 as an active ingredient to adjust the prescribed concentration. After air-dryness, it was placed in a plastic Petri dish with a diameter of 9 cm and inoculated with second-instar larvae of common cutworm, after which the dish was closed and then allowed to stand in a room thermostatted at 25° C. Eight days after the inoculation, the dead and alive were counted. The mortality was calculated according to the following equation and the insecticidal effect was judged according to the criterion shown in Test Example 1. The test was carried out with triplicate groups of 10 insects. [formula]

[2] = test system: Diamond Back Moth (Plutella xylostella); experiment: Test Example 1: insecticidal effect on diamond back moth, Chinese cabbage seedling with eggs immersed in liquid chemical; format: in vivo; conditions: eggs on Chinese cabbage seedling immersed about 30 seconds, six days after immersion, 25° C.
Text: Insecticidal Effect on Diamond Back Moth (Plutella xylostella)
Adult diamond back moths were released and allowed to oviposit on a Chinese cabbage seedling. Two days after the release, the seedling having the eggs deposited thereon was immersed for about 30 seconds in a liquid chemical prepared by diluting a preparation containing each compound listed in Table 1 or 2 as an active ingredient to adjust the prescribed concentration. After air-dryness, it was allowed to stand in a room thermostatted at 25° C. Six days after the immersion, the hatched insects were counted. The mortality was calculated according to the following equation and the insecticidal effect was judged according to the criterion shown below. The test was carried out with triplicate groups of 10 insects. [formula]

SMILES: C[S+]([O-])CC(C)(C)NC(=O)c1c(I)cccc1C(=O)Nc1ccc(OC(F)(F)C(F)OC(F)(F)C(F)(F)C(F)(F)F)cc1Cl (centres unmarked) [Compound 1-82]
- Test Example 2 insecticidal effect (mortality grade) ([1]; 5 ppm): C (Mortality 89-80%)
- Test Example 2 insecticidal effect (mortality grade) ([1]; 50 ppm): A (Mortality 100%)
- Test Example 1 insecticidal effect (mortality grade) ([2]; 5 ppm): A (Mortality 100%)
- Test Example 1 insecticidal effect (mortality grade) ([2]; 50 ppm): A (Mortality 100%)

SMILES: C[S+]([O-])CC(C)(C)NC(=O)c1c(I)cccc1C(=O)Nc1ccc(OC(F)(F)F)cc1Cl (centres unmarked) [Compound 1-52, N^1-[2-chloro-4-(trifluoromethoxy)phenyl]-N^2-(1,1-dimethyl-2methylsulfinylethyl)-3-iodophthalamide]
- mortality at 5 ppm ([1]; Spodoptera litura, 192 h, 5 ppm, read-out: Test Example 2 insecticidal effect (mortality grade)): 100%
- mortality at 50 ppm ([1]; Spodoptera litura, 192 h, 50 ppm, read-out: Test Example 2 insecticidal effect (mortality grade)): 100%
- mortality at 5 ppm ([2]; Plutella xylostella, 144 h, 5 ppm, read-out: Test Example 1 insecticidal effect (mortality grade)): 100%
- mortality at 50 ppm ([2]; Plutella xylostella, 144 h, 50 ppm, read-out: Test Example 1 insecticidal effect (mortality grade)): 100%

SMILES: C[S+]([O-])CC(C)(C)NC(=O)c1c(I)cccc1C(=O)Nc1ccc(OC(F)(F)C(F)OC(F)(F)F)cc1Cl (centres unmarked) [Compound 1-75]
- Test Example 2 insecticidal effect (mortality grade) ([1]; 5 ppm): E (Mortality 49-0%)
- Test Example 2 insecticidal effect (mortality grade) ([1]; 50 ppm): A (Mortality 100%)
- Test Example 1 insecticidal effect (mortality grade) ([2]; 5 ppm): A (Mortality 100%)
- Test Example 1 insecticidal effect (mortality grade) ([2]; 50 ppm): A (Mortality 100%)

SMILES: CSCC(C)(C)NC(=O)c1c(I)cccc1C(=O)Nc1ccc(OC(F)F)c(Cl)c1Cl [Compound 1-43]
- Test Example 2 insecticidal effect (mortality grade) ([1]; 5 ppm): A (Mortality 100%)
- Test Example 2 insecticidal effect (mortality grade) ([1]; 50 ppm): A (Mortality 100%)
- Test Example 1 insecticidal effect (mortality grade) ([2]; 5 ppm): A (Mortality 100%)
- Test Example 1 insecticidal effect (mortality grade) ([2]; 50 ppm): A (Mortality 100%)

SMILES: CSCC(C)(C)NC(=O)c1c(I)cccc1C(=O)Nc1ccc(SC(F)F)cc1Cl [Compound 1-107]
- Test Example 2 insecticidal effect (mortality grade) ([1]; 5 ppm): E (Mortality 49-0%)
- Test Example 2 insecticidal effect (mortality grade) ([1]; 50 ppm): E (Mortality 49-0%)
- Test Example 1 insecticidal effect (mortality grade) ([2]; 5 ppm): A (Mortality 100%)
- Test Example 1 insecticidal effect (mortality grade) ([2]; 50 ppm): A (Mortality 100%)

SMILES: CSCC(C)(C)NC(=O)c1c(I)cccc1C(=O)Nc1ccc(Oc2ccc(C(F)(F)F)cn2)cc1Cl [Compound 1-94]
- Test Example 2 insecticidal effect (mortality grade) ([1]; 5 ppm): E (Mortality 49-0%)
- Test Example 2 insecticidal effect (mortality grade) ([1]; 50 ppm): A (Mortality 100%)
- Test Example 1 insecticidal effect (mortality grade) ([2]; 5 ppm): A (Mortality 100%)
- Test Example 1 insecticidal effect (mortality grade) ([2]; 50 ppm): A (Mortality 100%)

SMILES: CSCC(C)(C)NC(=O)c1c(I)cccc1C(=O)Nc1cc(Cl)c(OC(F)(Cl)C(F)(Cl)C(F)(F)F)cc1Cl (centres unmarked) [Compound 1-73]
- Test Example 2 insecticidal effect (mortality grade) ([1]; 5 ppm): E (Mortality 49-0%)
- Test Example 2 insecticidal effect (mortality grade) ([1]; 50 ppm): A (Mortality 100%)
- Test Example 1 insecticidal effect (mortality grade) ([2]; 5 ppm): E (Mortality 49-0%)
- Test Example 1 insecticidal effect (mortality grade) ([2]; 50 ppm): A (Mortality 100%)

SMILES: CC(C)(CS(C)(=O)=O)NC(=O)c1c(I)cccc1C(=O)Nc1ccc(OC(F)(F)C(F)OC(F)(F)C(F)(F)C(F)(F)F)cc1Cl (centres unmarked) [Compound 1-83]
- Test Example 2 insecticidal effect (mortality grade) ([1]; 5 ppm): A (Mortality 100%)
- Test Example 2 insecticidal effect (mortality grade) ([1]; 50 ppm): A (Mortality 100%)
- Test Example 1 insecticidal effect (mortality grade) ([2]; 5 ppm): A (Mortality 100%)
- Test Example 1 insecticidal effect (mortality grade) ([2]; 50 ppm): A (Mortality 100%)

SMILES: C[S+]([O-])CC(C)(C)NC(=O)c1c(I)cccc1C(=O)Nc1ccc(OC(F)(F)C(F)C(F)(F)F)c(Cl)c1Cl (centres unmarked) [Compound 1-70]
- Test Example 2 insecticidal effect (mortality grade) ([1]; 5 ppm): E (Mortality 49-0%)
- Test Example 2 insecticidal effect (mortality grade) ([1]; 50 ppm): A (Mortality 100%)
- Test Example 1 insecticidal effect (mortality grade) ([2]; 5 ppm): A (Mortality 100%)
- Test Example 1 insecticidal effect (mortality grade) ([2]; 50 ppm): A (Mortality 100%)

SMILES: CSCC(C)(C)NC(=O)c1c(I)cccc1C(=O)Nc1ccc(Oc2ncc(C(F)(F)F)cc2Cl)c(Cl)c1Cl [Compound 1-98]
- Test Example 2 insecticidal effect (mortality grade) ([1]; 5 ppm): E (Mortality 49-0%)
- Test Example 2 insecticidal effect (mortality grade) ([1]; 50 ppm): A (Mortality 100%)
- Test Example 1 insecticidal effect (mortality grade) ([2]; 5 ppm): A (Mortality 100%)
- Test Example 1 insecticidal effect (mortality grade) ([2]; 50 ppm): A (Mortality 100%)

SMILES: C[S+]([O-])CC(C)(C)NC(=O)c1c(I)cccc1C(=O)Nc1ccc(OC(F)(F)C(F)OC(F)(F)C(F)(F)C(F)(F)F)c(Cl)c1Cl (centres unmarked) [Compound 1-85]
- Test Example 2 insecticidal effect (mortality grade) ([1]; 5 ppm): E (Mortality 49-0%)
- Test Example 2 insecticidal effect (mortality grade) ([1]; 50 ppm): A (Mortality 100%)
- Test Example 1 insecticidal effect (mortality grade) ([2]; 5 ppm): A (Mortality 100%)
- Test Example 1 insecticidal effect (mortality grade) ([2]; 50 ppm): A (Mortality 100%)

SMILES: CSCC(C)(C)NC(=O)c1c(I)cccc1C(=O)Nc1ccc(OC(F)(F)C(F)Cl)cc1Cl (centres unmarked) [Compound 1-58]
- Test Example 2 insecticidal effect (mortality grade) ([1]; 5 ppm): E (Mortality 49-0%)
- Test Example 2 insecticidal effect (mortality grade) ([1]; 50 ppm): A (Mortality 100%)
- Test Example 1 insecticidal effect (mortality grade) ([2]; 5 ppm): E (Mortality 49-0%)
- Test Example 1 insecticidal effect (mortality grade) ([2]; 50 ppm): A (Mortality 100%)

SMILES: CC(C)(CS(C)(=O)=O)NC(=O)c1c(I)cccc1C(=O)Nc1ccc(C(F)(F)F)cc1Cl [Compound 1-22]
- Test Example 2 insecticidal effect (mortality grade) ([1]; 5 ppm): C (Mortality 89-80%)
- Test Example 2 insecticidal effect (mortality grade) ([1]; 50 ppm): A (Mortality 100%)
- Test Example 1 insecticidal effect (mortality grade) ([2]; 5 ppm): A (Mortality 100%)
- Test Example 1 insecticidal effect (mortality grade) ([2]; 50 ppm): A (Mortality 100%)

SMILES: CSCC(C)(C)NC(=O)c1c(I)cccc1C(=O)Nc1ccc(C(F)(F)F)cc1Cl [Compound 1-20]
- Test Example 2 insecticidal effect (mortality grade) ([1]; 5 ppm): A (Mortality 100%)
- Test Example 2 insecticidal effect (mortality grade) ([1]; 50 ppm): A (Mortality 100%)
- Test Example 1 insecticidal effect (mortality grade) ([2]; 5 ppm): A (Mortality 100%)
- Test Example 1 insecticidal effect (mortality grade) ([2]; 50 ppm): A (Mortality 100%)

SMILES: CSCC(C)(C)NC(=O)c1c(I)cccc1C(=O)Nc1ccc(OC(F)(F)C(F)OC(F)(F)F)cc1Cl (centres unmarked) [Compound 1-74]
- Test Example 2 insecticidal effect (mortality grade) ([1]; 5 ppm): E (Mortality 49-0%)
- Test Example 2 insecticidal effect (mortality grade) ([1]; 50 ppm): A (Mortality 100%)
- Test Example 1 insecticidal effect (mortality grade) ([2]; 5 ppm): A (Mortality 100%)
- Test Example 1 insecticidal effect (mortality grade) ([2]; 50 ppm): A (Mortality 100%)

SMILES: C[S+]([O-])CC(C)(C)NC(=O)c1c(I)cccc1C(=O)Nc1ccc(OC(F)F)c(Cl)c1Cl (centres unmarked) [Compound 1-44]
- Test Example 2 insecticidal effect (mortality grade) ([1]; 5 ppm): E (Mortality 49-0%)
- Test Example 2 insecticidal effect (mortality grade) ([1]; 50 ppm): A (Mortality 100%)
- Test Example 1 insecticidal effect (mortality grade) ([2]; 5 ppm): A (Mortality 100%)
- Test Example 1 insecticidal effect (mortality grade) ([2]; 50 ppm): A (Mortality 100%)

SMILES: CC(C)(CS(C)(=O)=O)NC(=O)c1c(I)cccc1C(=O)Nc1ccc(OC(F)(F)C(F)OC(F)(F)F)cc1Cl (centres unmarked) [Compound 1-76]
- Test Example 2 insecticidal effect (mortality grade) ([1]; 5 ppm): E (Mortality 49-0%)
- Test Example 2 insecticidal effect (mortality grade) ([1]; 50 ppm): A (Mortality 100%)
- Test Example 1 insecticidal effect (mortality grade) ([2]; 5 ppm): A (Mortality 100%)
- Test Example 1 insecticidal effect (mortality grade) ([2]; 50 ppm): A (Mortality 100%)

SMILES: CSCC(C)(C)NC(=O)c1c(I)cccc1C(=O)Nc1ccc(Oc2ncc(C(F)(F)F)cc2Cl)cc1Cl [Compound 1-95]
- Test Example 2 insecticidal effect (mortality grade) ([1]; 5 ppm): E (Mortality 49-0%)
- Test Example 2 insecticidal effect (mortality grade) ([1]; 50 ppm): A (Mortality 100%)
- Test Example 1 insecticidal effect (mortality grade) ([2]; 5 ppm): A (Mortality 100%)
- Test Example 1 insecticidal effect (mortality grade) ([2]; 50 ppm): A (Mortality 100%)

SMILES: CSCC(C)(C)NC(=O)c1c(I)cccc1C(=O)Nc1ccc(OC(F)(F)C(F)C(F)(F)F)c(Cl)c1Cl (centres unmarked) [Compound 1-69]
- Test Example 2 insecticidal effect (mortality grade) ([1]; 5 ppm): E (Mortality 49-0%)
- Test Example 2 insecticidal effect (mortality grade) ([1]; 50 ppm): A (Mortality 100%)
- Test Example 1 insecticidal effect (mortality grade) ([2]; 5 ppm): A (Mortality 100%)
- Test Example 1 insecticidal effect (mortality grade) ([2]; 50 ppm): A (Mortality 100%)

SMILES: CSCC(C)(C)NC(=O)c1c(I)cccc1C(=O)Nc1ccc(-c2ccc(Cl)cc2)cc1Cl [Compound 1-38]
- Test Example 2 insecticidal effect (mortality grade) ([1]; 5 ppm): E (Mortality 49-0%)
- Test Example 2 insecticidal effect (mortality grade) ([1]; 50 ppm): A (Mortality 100%)
- Test Example 1 insecticidal effect (mortality grade) ([2]; 5 ppm): A (Mortality 100%)
- Test Example 1 insecticidal effect (mortality grade) ([2]; 50 ppm): A (Mortality 100%)

SMILES: CC(C)(CS(C)(=O)=O)NC(=O)c1c(I)cccc1C(=O)Nc1ccc(OC(F)(F)C(F)OC(F)(F)C(F)(F)C(F)(F)F)c(Cl)c1Cl (centres unmarked) [Compound 1-86]
- Test Example 2 insecticidal effect (mortality grade) ([1]; 5 ppm): D (Mortality 79-50%)
- Test Example 2 insecticidal effect (mortality grade) ([1]; 50 ppm): A (Mortality 100%)
- Test Example 1 insecticidal effect (mortality grade) ([2]; 5 ppm): A (Mortality 100%)
- Test Example 1 insecticidal effect (mortality grade) ([2]; 50 ppm): A (Mortality 100%)

SMILES: CSCC(C)(C)NC(=O)c1c(I)cccc1C(=O)Nc1ccc(OC(F)(F)C(F)OC(F)(F)C(F)(F)C(F)(F)F)c(Cl)c1Cl (centres unmarked) [Compound 1-84]
- Test Example 2 insecticidal effect (mortality grade) ([1]; 5 ppm): E (Mortality 49-0%)
- Test Example 2 insecticidal effect (mortality grade) ([1]; 50 ppm): A (Mortality 100%)
- Test Example 1 insecticidal effect (mortality grade) ([2]; 5 ppm): E (Mortality 49-0%)
- Test Example 1 insecticidal effect (mortality grade) ([2]; 50 ppm): A (Mortality 100%)

SMILES: CC(C)(CS(C)(=O)=O)NC(=O)c1c(I)cccc1C(=O)Nc1ccc(OC(F)(F)C(F)C(F)(F)F)cc1Cl (centres unmarked) [Compound 1-68]
- Test Example 2 insecticidal effect (mortality grade) ([1]; 5 ppm): E (Mortality 49-0%)
- Test Example 2 insecticidal effect (mortality grade) ([1]; 50 ppm): A (Mortality 100%)
- Test Example 1 insecticidal effect (mortality grade) ([2]; 5 ppm): A (Mortality 100%)
- Test Example 1 insecticidal effect (mortality grade) ([2]; 50 ppm): A (Mortality 100%)
